Reference: the NIST ThermoML archive (doi:10.1021/je401036f)

Assay: xn = mol fraction of the nth substance listed
Settings: 101 kPa, Liquid; for viscosity: Concentric cylinders viscometry; for mass density: Vibrating tube method

CC(O)CN (stereo not given) [1-amino-2-propanol] + CCC(C)O
Settings	mass density, 288.15 K [kg/m3]	mass density, 293.15 K [kg/m3]	mass density, 298.15 K [kg/m3]	mass density, 303.15 K [kg/m3]	mass density, 308.15 K [kg/m3]	viscosity, 288.15 K [mPa·s]	viscosity, 293.15 K [mPa·s]	viscosity, 298.15 K [mPa·s]	viscosity, 303.15 K [mPa·s]	viscosity, 308.15 K [mPa·s]
x1 = 0.1003	823.697	819.706	815.665	811.527	807.298	5.068	4.16	3.45	2.889	2.444
x1 = 0.2005	837.759	833.763	829.72	825.623	821.466	5.97	4.888	4.048	3.378	2.86
x1 = 0.3	852.257	848.265	844.235	840.158	836.03	7.261	5.949	4.884	4.059	3.407
x1 = 0.3999	867.392	863.403	859.38	855.316	851.209	9.219	7.373	5.96	4.898	4.08
x1 = 0.5	882.695	878.701	874.691	870.629	866.532	11.68	9.189	7.338	5.963	4.929
x1 = 0.6001	898.243	894.252	890.255	886.197	882.111	14.95	11.6	9.121	7.316	5.962
x1 = 0.7	914.159	910.183	906.21	902.141	898.074	19.39	14.8	11.45	9.136	7.358
x1 = 0.8	930.494	926.524	922.526	918.502	914.445	25.16	18.77	14.41	11.31	9.005
x1 = 0.8999	947.198	943.272	939.29	935.275	931.229	32.94	24.3	18.35	14.16	11.12
x1 = 1	964.544	960.598	956.618	952.612	948.577	43.7	31.68	23.54	17.89	13.88
